Results reported in patent US5096902A, “Heterocyclic compounds containing nitrogen and sulfur, pharmaceutical compositions containing them and process for preparing same” (Richter Gedeon Vegyeszeti Gyar Rt., priority 1989, dated 1992).
Like-named read-outs stand apart in the source and are kept apart here.

Legend:
conscious mice = assay: Normobaric hypoxia test (96% nitrogen / 4% oxygen) in conscious mice; type: in vivo; conditions: 50 mg/kg i.p.; for Survival time / response vs control in vivo at 50 mg/kg: 30 min before; for Survival time: three series with controls 6.32, 5.78 and 3.05 min; for response vs control in vivo at 50 mg/kg / responders at 50 mg/kg: Mus musculus, ip; for response vs control in vivo at 50 mg/kg: control = 100, read-out: Survival time, % (relative to control group); for responders at 50 mg/kg: protected = survival twice as long as control group, read-out: Protection
Description: The antihypoxic activity was investigated on conscious mice under normobaric hypoxia. Five male mice each were placed in a glass cylinder of 3 liters volume, which a gaseous mixture containing 96% of nitrogen and 4% of oxygen was bubbled through. The interval passing from the accomodation of the animals until the cessation of their respiratory movement was registered as survival time. Animals surviving a time of two times as long as that of the control group, were considered to be protected.
Ten animals each were intraperitoneally (i.p.) given a dose of 50 mg/kg of body-weight (hereinafter abbreviated: mg/kg) each of the substances 30 minutes before the accommodation in the glass cylinders. The average time of survival, the percentage of elongation of survival time in comparison to that of the control group and the percentage of the animals protected are shown in Table I.

mice [1] = assay: Asphyxial anoxia test; type: in vivo; conditions: Mus musculus; oral, mice starved 16 hours, 1 hour after treatment; protected = survival longer by 30% than control; probit analysis
Experimental: (§1) The antihypoxic effect of the compounds according to the invention was proven also by using the methods of asphyxial anoxia and hypobaric hypoxia. These investigations were carried out by oral administration also proving the oral efficiency which makes possible use of the active compounds according to the invention in a tablet form.
Mice starved for 16 hours were orally treated with the compounds according to the invention and after one hour, they were placed into well-closed glass bottles of 100 ml volume. The interval passing from closing the bottle until the cessation of the respiratory movement was registered as survival time. Animals surviving longer by 30% than that of average survival time of the control group, were considered to be protected.
(§2) In the cases of both methods, the ED50 values, i.e. the dose protecting half of the treated animals from the hypoxia, were calculated by using probit analysis.

mice [2] = assay: Hypobaric hypoxia test; type: in vivo; conditions: Mus musculus; oral, mice starved 16 hours, 170 Hgmm, 1 hour after treatment; protected = survival twice control; probit analysis
Experimental: as §1
Mice starved for 16 hours were orally treated with the compounds according to the invention, and placed into a desiccator one hour following the treatment. The pressure in the desiccator was reduced to 170 Hgmm within 20 seconds and the survival time was registered from this time until the cessation of respiratory movement. Animals surviving twice as long as the average survival time of the control group were considered to be protected.
as §2

Toxicity (LD50) on mice = conditions: mouse, in vivo
Experimental: The toxicity of the active compound of Example 35a according to the invention was determined on mice.

| Structure (SMILES) | Survival time (conscious mice) [min] | response vs control in vivo at 50 mg/kg (conscious mice) [%] | responders at 50 mg/kg (conscious mice) [%] | ED50 (mice [1]) [mg/kg] | ED50 (mice [2]) [mg/kg] | LD50 (Toxicity (LD50) on mice; intravenous, read-out: LD50 intravenously) [mg/kg] | LD50 (Toxicity (LD50) on mice; oral, read-out: LD50 orally) [mg/kg] |
| --- | --- | --- | --- | --- | --- | --- | --- |
| O=C(CCN1CCSC1)c1ccc(Cl)cc1 [Example 17] | 11.00 | 174 | 60 | 55 | 60 |  |  |
| COC(=O)C1N(CCC(=O)c2ccc(F)cc2)CSC1(C)C (stereo not drawn) [Example 70] | 5.78 | 189 | 60 |  |  |  |  |
| O=C(CCN1CCSC1)c1ccc(F)cc1 [Example 35a, 1-(4-fluorophenyl)-3-(3-thiazolidinyl)propan-1-one] | 10.75 | 186 | 60 | 18.3 | 58.7 | 108 | 646 |
| CC(CN1CCSC1)C(=O)c1ccc(Br)cc1 (stereo not drawn) [Example 30] | 8.40 | 145 | 40 |  |  |  |  |
| COc1ccc(C(=O)CCN2CCSC2)c(C)c1 [Example 12] | 10.28 | 178 | 40 |  |  |  |  |
| O=C(CCN1CCSC1)c1ccc(Br)cc1 [Example 18] | 10.58 | 167 | 50 |  |  |  |  |
| O=C(CCN1CCSC1)c1ccc(Cl)c(Cl)c1 [Example 19] | 7.90 | 125 | 20 |  |  |  |  |
| O=C(CCN1CCSC1)c1cccs1 [Example 37, 1-(2-thienyl)-3-(3-thiazolidinyl)propan-1-one] | 12.22 | 211 | 60 |  |  |  |  |
| CSc1ccc(C(=O)CCN2CCSC2)cc1 [Example 34, 1-(4-methylthiophenyl)-3-(3-thiazolidinyl)propan-1-one] | 12.76 | 202 | 70 |  |  |  |  |
| O=C(CCN1CCSC1)c1ccccc1 [Example 1, 1-phenyl-3-(thiazolidinyl)propan-1-one] | 9.35 | 148 | 30 |  |  |  |  |
| COc1ccc(C(=O)CCN2CCSC2)cc1 [Example 8] | 8.27 | 131 | 20 |  |  |  |  |
| CCc1ccc(C(=O)CCN2CCSC2)s1 [Example 38] | 9.95 | 172 | 30 |  |  |  |  |
| O=C(CCN1CCSC1)c1cccc([N+](=O)[O-])c1 [Example 20] | 7.85 | 136 | 20 |  |  |  |  |
| CC(CN1CCSC1)C(=O)c1ccccc1 (stereo not drawn) [Example 22] | 9.27 | 147 | 30 |  |  |  |  |
| CC(CN1CCSC1)C(=O)c1ccc(F)cc1 (stereo not drawn) [Example 27] | 5.32 | 174 | 20 |  |  |  |  |
| O=C(CCN1CCCSC1)c1ccc(-c2ccccc2)cc1 [Example 49] | 9.72 | 154 | 30 |  |  |  |  |
| CC(CN1CCSC1)C(=O)c1cccs1 (stereo not drawn) [Example 41] | 8.91 | 154 | 20 |  |  |  |  |
| O=C(CCN1CCSC1)c1ccc(Cl)s1 [Example 39] | 10.43 | 180 | 40 |  |  |  |  |
